Patent US9371527B2, “Compositions and methods related to protein displacement therapy for myotonic distrophy” (University of Rochester, priority 2006, dated 2016)
“Also recorded” adds a separate entry of the source.

Tests used:
ClC-1 protein [1] = experiment: ClC-1 immunofluorescence, Mbnl1^ΔE3/ΔE3 mice; assay type: in vivo; conditions: TA muscle, 3 weeks; listed as antisense morpholino
Procedure: (§1) FIGS. 27A, 27B, 27C, 27D, and 27E show antisense morpholino represses exon 7a inclusion, restores ClC-1 protein expression, and rescues myotonia in Mbnl1^ΔE3/ΔE3 mice. […] Bar=20 μM. […] Mean±s.d.; n=3 per group; **P<0.0001 antisense- versus invert-treated control; ANOVA.
(§2) Frozen transverse sections of TA muscle (10 μM) were stained with affinity-purified rabbit polyclonal anti-ClC-1 antibody (1:50; Alpha Diagnostic International) as previously described (Kanadia, R. N., et al. (2006) Proc Natl Acad Sci USA 103:11748-11753). Muscle sections from ClC-1 null mice and WT FVB mice served as negative and positive controls on each slide. Z-plane stacks consisting of 8 images separated by 0.25 μM were captured and deconvolved using Autoquant v9.3 software (Autoquant Imaging). Maximum-projection images were obtained using Metavue software (Universal Imaging Corporation). Exposure time and thresholding were identical for all comparisons of antisense vs. invert controls.

ClC-1 protein [2] = experiment: ClC-1 immunofluorescence after ClC-1 antisense morpholino, HSA^LR TA muscle; assay type: in vivo, HSA^LR mice; conditions: 3 weeks after treatment, vs invert-treated control
Procedure: (§3) The morpholino was complementary to the 3′ splice site of ClC-1 pre-mRNA. Muscle fibers are outlined by wheat germ agglutinin (wga) and nuclei are highlighted by DAPI. FIGS. 24D and 24 E show brightfield (D) and fluorescence (E) images of a single FDB fiber showing preferential nuclear localization of the antisense morpholino (post injection day 5). […] Bars=20 μM.
as §2

[3] = tested on: nuclear foci containing CUG^exp RNA and MBNL1 protein; experiment: FISH and immunofluorescence of ribonuclear inclusions after ClC-1 antisense morpholino; assay type: in vivo, HSA^LR mice; conditions: TA muscle, 3 weeks after injection; listed as antisense morpholino
[4] = Tissue uptake and distribution of carboxyfluorescein-labeled antisense morpholino; assay type: in vivo, HSA^LR mice; conditions: for subcellular localization of antisense morpholino: muscle fibers, TA 3 weeks / FDB day 5
Procedure: Antisense morpholino targeting the 3′ splice junction of ClC-1 exon 7a was injected into foot pad muscle of HSA^LR mice under general anesthesia. Uptake into muscle fibers was enhanced by in vivo electroporation. The morpholino was tagged with fluorescein. 4 days later, individual FDB muscle fibers were isolated. […] As a control, the opposite footpad was injected with morpholino having the inverted sequence. […] The peak current density in HSA^LR mice (center panel) is much lower than in wild-type mice (left panel). However, after morpholino treatment in HSA^LR mice (right panel), the current density is restored to levels that are similar to wild-type mice. […] The antisense morpholino (closed squares) restores chloride current density to normal levels (open circles or triangles).
as §3
The strategy for suppressing the inclusion of exon 7a is diagrammed in FIG. 23A. The morpholino AONs were complementary to the 3′ or 5′ splice sites of exon 7a in the ClC-1 pre-mRNA (FIG. 23B). To examine tissue uptake, a carboxyfluorescein-labeled morpholino was injected into tibialis anterior (TA) muscle of HSA^LR mice. […] To improve uptake and distribution of AON, voltage pulses were used to electroporate muscle fibers after the AON injection.
HSA^LR (Mankodi, A., et al. (2000) Science 289:1769-1773) or Mbnl1^ΔE3/ΔE3 mice (Kanadia, R. N., et al. (2003) Science 302:1978-1980) were anesthetized by intraperitoneal injection of 100 mg/kg ketamine, 10 mg/kg xylazine, and 3 mg/kg acepromazine. TA muscle was pretreated by intramuscular injection of bovine hyaluronidase (15 μl, 0.4 U/μl) (Sigma) (McMahon, J. M., et al. (2001) Gene Ther 8:1264-1270). Two hours later, 10 or 20 μg of morpholino in a total volume of 20 μl phosphate buffered saline (PBS) was injected using a 30-gauge needle. TA muscle was then electroporated using electrodes placed parallel to the long axis of the muscle. Electroporation parameters were 100 V/cm, 10 pulses at 1 Hz, and 20 ms duration per pulse. Antisense or control morpholino with inverted sequence was injected into TA muscles of opposite limbs. The determination of which TA received antisense morpholino was randomized, and investigators remained blinded to this assignment until EMG analyses were completed. Other analyses were performed without blinding. For experiments to determine the distribution of injected oligos, the antisense morpholino was labeled with carboxyfluorescein and cryosections of muscle (10 μM) were examined by fluorescence microscopy, with or without fixation in 4% paraformaldehyde. Some sections were co-labeled with TRITC-wheat germ agglutinin (Parsons, S. A., et al. (2003) Mol Cell Biol 23:4331-4343) (50 μg/ml in PBS; Sigma) and 4′,6-diamidino-2-phenylindole (DAPI) to highlight the surface membranes and nuclei of muscle fibers.

ClC-1 exon 7a = experiment: RT-PCR of ClC-1 exon 7a splicing after antisense morpholino, Mbnl1^ΔE3/ΔE3 mice; assay type: in vivo; conditions: TA muscle, 3 weeks, 20 μg
Procedure: as §1
To examine the effects of AON in this model, antisense morpholino or invert control was injected into TA muscle of Mbnl1^ΔE3/ΔE3 mice.
HSA^LR (Mankodi, A., et al. (2000) Science 289:1769-1773) or Mbnl1^ΔE3/ΔE3 mice (Kanadia, R. N., et al. (2003) Science 302:1978-1980) were anesthetized by intraperitoneal injection of 100 mg/kg ketamine, 10 mg/kg xylazine, and 3 mg/kg acepromazine. TA muscle was pretreated by intramuscular injection of bovine hyaluronidase (15 μl, 0.4 U/μl) (Sigma) (McMahon, J. M., et al. (2001) Gene Ther 8:1264-1270). Two hours later, 10 or 20 μg of morpholino in a total volume of 20 μl phosphate buffered saline (PBS) was injected using a 30-gauge needle. TA muscle was then electroporated using electrodes placed parallel to the long axis of the muscle. Electroporation parameters were 100 V/cm, 10 pulses at 1 Hz, and 20 ms duration per pulse. […] For experiments to determine the distribution of injected oligos, the antisense morpholino was labeled with carboxyfluorescein and cryosections of muscle (10 μM) were examined by fluorescence microscopy, with or without fixation in 4% paraformaldehyde. […]

With “antisense 1: morpholino 5′-CCAGGCACGGTCTGCAACAGAGAAG-3′ targeting the 3′ splice site of ClC-1 exon 7a (all phosphorodiamidate morpholino (PMO))” the “ClC-1 protein at the sarcolemma (immunofluorescence)” value (ClC-1 protein [1]) was “increased the expression of ClC-1 protein at the sarcolemma”, the “sarcolemmal ClC-1 protein” value (ClC-1 protein [2]; listed as antisense morpholino) was “increase of sarcolemmal ClC-1 protein” and the “sarcolemmal ClC-1 protein” value (ClC-1 protein [2]; listed as morpholino AON) was “increased the level of ClC-1 protein in the sarcolemma”. For the same substance, the “formation of ribonuclear inclusions (CUG^exp RNA and MBNL1 foci)” value [3] was “did not affect the formation of nuclear foci; also recorded: no effect on the formation of ribonuclear inclusions”, the “fibers showing fluorescein uptake” value ([4]; FDB fibers, 4 days after foot pad injection + electroporation) was “Greater than 90%” and the “tissue uptake of antisense morpholino” value ([4]; TA injection followed by electroporation) was “throughout the TA muscle”. The “tissue uptake of antisense morpholino” value ([4]; TA injection without electroporation) was “limited to the needle track”, the “subcellular localization of antisense morpholino” value ([4]; listed as AON) was “accumulate preferentially in the nucleus” and the “subcellular localization of antisense morpholino” value ([4]; listed as antisense morpholino) was “localizes preferentially to muscle nuclei”. For the same substance, the “ClC-1 exon 7a inclusion” value (ClC-1 exon 7a; listed as antisense morpholino) was “repressed the inclusion of exon 7a” and the “ClC-1 exon 7a inclusion” value (ClC-1 exon 7a; listed as antisense morpholino 1) was “reduced inclusion of exon 7a”.
